Experimental data: US9850283B2, “Macrocyclic inhibitors of the PD-1/PD-L1 and CD80(B7-1)/PD-L1 protein/protein interactions” (BRISTOL-MYERS SQUIBB COMPANY, priority 2013, dated 2017)
Like-named read-outs stand apart in the source and are kept apart here. Positions of bridges follow the written chain, without caps; N, C: chain ends. Non-standard residues stand in square brackets, D forms with d. Residues, ends and D or L forms follow the SMILES beside them. Phe(3,4-Me2) = Cc1ccc(C[C@H](N)C(=O)O)cc1C; Phe(2-OMe) = COc1ccccc1C[C@H](N)C(=O)O; Phe(3-F) = N[C@@H](Cc1cccc(F)c1)C(=O)O; hhPhe = N[C@@H](CCCc1ccccc1)C(=O)O; Hyp = O=C(O)[C@@H]1C[C@@H](O)CN1; 2Pal = N[C@@H](Cc1ccccn1)C(=O)O; 3Pal = N[C@@H](Cc1cccnc1)C(=O)O; AllylGly = C=CC[C@H](N)C(=O)O; NMeNle = CCCC[C@H](NC)C(=O)O; NMeA = CN[C@@H](C)C(=O)O; Dap = NC[C@H](N)C(=O)O

How the values were obtained:
[1] = target: T1, Human PD-L1/PD-1 (Homo sapiens, UniProt Q9NZQ7); assay: HTRF PD-1-Ig/PD-L1-His binding assay (human PD-L1)
T1 construct: made in house; host or cells: HEK293T
T1 sequence (Q9NZQ7 with tags, fused parts or gaps): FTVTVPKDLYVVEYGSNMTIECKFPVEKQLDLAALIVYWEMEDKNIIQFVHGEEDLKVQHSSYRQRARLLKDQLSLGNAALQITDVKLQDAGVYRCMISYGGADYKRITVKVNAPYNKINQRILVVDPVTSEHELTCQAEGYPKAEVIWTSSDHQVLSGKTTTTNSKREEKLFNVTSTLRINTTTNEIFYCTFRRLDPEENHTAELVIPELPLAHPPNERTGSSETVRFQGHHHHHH
Outline: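 HTRF read-out: Eu cryptate anti-Ig mAb 1 nM final, APC anti-His mAb 20 nM final, added over the binding reaction. Proteins were PD-1-Ig and PD-L1-His ectodomain fusions. Buffer was dPBS, 0.1% BSA, 0.05% Tween-20.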

[2] = target: T2, LK35.2-hPD-L1 cells / PE-labeled PD-1-Ig (Homo sapiens, UniProt Q9NZQ7); assay: LK35.2-hPD-L1 cell binding high-content screening assay; assay type: cell-based; settings: cell binding assay, cell line not given
T2 construct: expressed in transfected cells; host or cells: LK35.2 mouse B cell line
T2 sequence (Q9NZQ7 19-290): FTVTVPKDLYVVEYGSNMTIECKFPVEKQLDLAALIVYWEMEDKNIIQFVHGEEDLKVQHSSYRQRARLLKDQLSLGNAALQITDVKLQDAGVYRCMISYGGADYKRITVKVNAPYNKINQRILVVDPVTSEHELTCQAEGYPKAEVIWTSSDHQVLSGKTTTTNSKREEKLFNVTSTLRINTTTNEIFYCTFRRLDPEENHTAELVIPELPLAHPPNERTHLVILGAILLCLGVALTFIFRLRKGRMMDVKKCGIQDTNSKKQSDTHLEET
Outline: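 Binding of PE-conjugated human PD-1-Ig (1 nM final) to human PD-L1 stably expressed on a mouse B-cell line (LK35.2) was measured by high-content imaging after washes. Compound and labeled PD-1-Ig were co-incubated 1 h at 37 °C with cells in RPMI/10% FCS.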

[3] = cluster symbol, read-out: HTRF IC50 cluster
[4] = cluster symbol, read-out: CBA IC50 cluster

Row | SMILES | IC50 [1, 3] [µM] | IC50 [2, 4] [µM] | IC50 ([1]; value given instead of cluster, read-out: HTRF IC50 value) [µM] | IC50 ([2]; value given instead of cluster, read-out: CBA IC50 value) [µM]
1 | CCCC[C@H]1C(=O)N(C)[C@@H](CCCC)C(=O)N[C@@H](CCCNC(=N)N)C(=O)N[C@H](C(=O)NCC(N)=O)C/C=C/C(=O)N[C@@H](Cc2ccc(O)cc2)C(=O)N(C)[C@@H](C)C(=O)N[C@@H](CC(N)=O)C(=O)N2CCCC2C(=O)N[C@@H](Cc2cnc[nH]2)C(=O)N[C@@H](CC(C)C)C(=O)N2CCC[C@H]2C(=O)N[C@@H](Cc2c[nH]c3ccccc23)C(=O)N[C@@H](CO)C(=O)N[C@@H](Cc2c[nH]c3ccccc23)C(=O)N1C (stereo partly shown) [Example 7012] | > 0.0305 | > 0.0743 | – | –
2 | CCCC[C@H]1C(=O)N(C)[C@@H](CCCC)C(=O)N[C@@H](CCCNC(=N)N)C(=O)N[C@H](C(=O)NCC(N)=O)C/C=C/C(=O)N[C@@H](Cc2ccc(O)cc2)C(=O)N(C)[C@@H](C)C(=O)N[C@@H](CC(N)=O)C(=O)N2CCCC2C(=O)N[C@@H](CN)C(=O)N[C@@H](CC(C)C)C(=O)N2C[C@H](O)C[C@H]2C(=O)N[C@@H](Cc2c[nH]c3ccccc23)C(=O)N[C@@H](CO)C(=O)N[C@@H](Cc2c[nH]c3ccccc23)C(=O)N1C (stereo partly shown) [Example 7013] | 0.00676 to 0.0303 | 0.00478 to 0.0729 | – | –
3 | C=CC[C@@H]1NC(=O)[C@H](Cc2c[nH]c3ccccc23)NC(=O)[C@@H]2CCCN2C(=O)[C@H](CC(C)C)NC(=O)[C@H](Cc2cnc[nH]2)NC(=O)[C@@H]2CCCN2C(=O)[C@H](CC(N)=O)NC(=O)[C@H](C)N(C)C(=O)[C@H](Cc2ccc(O)cc2)NC(=O)CSC[C@@H](C(=O)NCC(N)=O)NC(=O)[C@H](CC=C)NC(=O)[C@H](CCCC)N(C)C(=O)[C@H](CCCC)N(C)C(=O)[C@H](Cc2c[nH]c3ccccc23)NC1=O [Example 7014] ({CH2CO}-Y[NMeA]NPHLPW[AllylGly]W[NMeNle][NMeNle][AllylGly]CG-NH2; thioether N-14) | 0.000385 to 0.00674 | 0.000158 to 0.00471 | – | –
4 | CCCC[C@H]1C(=O)N(C)[C@@H](CCCC)C(=O)N[C@@H](CCCNC(=N)N)C(=O)N[C@H](C(=O)NCC(N)=O)CSCC(=O)N[C@@H](Cc2ccc(C)c(C)c2)C(=O)N(C)[C@@H](C)C(=O)N[C@@H](CC(N)=O)C(=O)N2CCC[C@H]2C(=O)N[C@@H](Cc2cnc[nH]2)C(=O)N[C@@H](CC(C)C)C(=O)N2CCC[C@H]2C(=O)N[C@@H](Cc2c[nH]c3ccccc23)C(=O)N[C@@H](CO)C(=O)N[C@@H](Cc2c[nH]c3ccccc23)C(=O)N1C [Example 7015] ({CH2CO}-[Phe(3,4-Me2)][NMeA]NPHLPWSW[NMeNle][NMeNle]RCG-NH2; thioether N-14) | 0.00676 to 0.0303 | 0.00478 to 0.0729 | – | –
5 | CCCC[C@H]1C(=O)N(C)[C@@H](CCCC)C(=O)N[C@@H](CCCNC(=N)N)C(=O)N[C@H](C(=O)NCC(N)=O)CSCC(=O)N[C@@H](Cc2cccc(F)c2)C(=O)N(C)[C@@H](C)C(=O)N[C@@H](CC(N)=O)C(=O)N2CCC[C@H]2C(=O)N[C@@H](Cc2cnc[nH]2)C(=O)N[C@@H](CC(C)C)C(=O)N2CCC[C@H]2C(=O)N[C@@H](Cc2c[nH]c3ccccc23)C(=O)N[C@@H](CO)C(=O)N[C@@H](Cc2c[nH]c3ccccc23)C(=O)N1C [Example 7016] ({CH2CO}-[Phe(3-F)][NMeA]NPHLPWSW[NMeNle][NMeNle]RCG-NH2; thioether N-14) | 0.00676 to 0.0303 | 0.00478 to 0.0729 | – | –
6 | C=CC[C@@H]1NC(=O)[C@H](Cc2c[nH]c3ccccc23)NC(=O)[C@@H]2C[C@@H](O)CN2C(=O)[C@H](CC(C)C)NC(=O)[C@H](Cc2cnc[nH]2)NC(=O)[C@@H]2CCCN2C(=O)[C@H](CC(N)=O)NC(=O)[C@H](C)N(C)C(=O)[C@H](Cc2ccc(O)cc2)NC(=O)CSC[C@@H](C(=O)NCC(N)=O)NC(=O)[C@H](CC=C)NC(=O)[C@H](CCCC)N(C)C(=O)[C@H](CCCC)N(C)C(=O)[C@H](Cc2c[nH]c3ccccc23)NC1=O [Example 7019] ({CH2CO}-Y[NMeA]NPHL[Hyp]W[AllylGly]W[NMeNle][NMeNle][AllylGly]CG-NH2; thioether N-14) | 0.000385 to 0.00674 | 0.000158 to 0.00471 | – | –
7 | C=CC[C@@H]1NC(=O)[C@H](Cc2c[nH]c3ccccc23)NC(=O)[C@@H]2CCCN2C(=O)[C@H](CC(C)C)NC(=O)[C@H](Cc2cnc[nH]2)NC(=O)[C@@H]2CCCN2C(=O)[C@H](CC(N)=O)NC(=O)[C@H](C)N(C)C(=O)[C@H](Cc2ccc(O)cc2)NC(=O)CSC[C@@H](C(=O)NCC(N)=O)NC(=O)[C@H](C)NC(=O)[C@H](CCCC)N(C)C(=O)[C@H](CCCC)N(C)C(=O)[C@H](Cc2c[nH]c3ccccc23)NC1=O [Example 7020] ({CH2CO}-Y[NMeA]NPHLPW[AllylGly]W[NMeNle][NMeNle]ACG-NH2; thioether N-14) | 0.000385 to 0.00674 | 0.00478 to 0.0729 | – | –
8 | C=CC[C@@H]1NC(=O)[C@H](Cc2c[nH]c3ccccc23)NC(=O)[C@@H]2CCCN2C(=O)[C@H](CC(C)C)NC(=O)[C@H](Cc2cnc[nH]2)NC(=O)[C@@H]2CCCN2C(=O)[C@H](CC(N)=O)NC(=O)[C@H](C)N(C)C(=O)[C@H](Cc2cnc[nH]2)NC(=O)CSC[C@@H](C(=O)NCC(N)=O)NC(=O)[C@H](CC=C)NC(=O)[C@H](CCCC)N(C)C(=O)[C@H](CCCC)N(C)C(=O)[C@H](Cc2c[nH]c3ccccc23)NC1=O [Example 7021] ({CH2CO}-H[NMeA]NPHLPW[AllylGly]W[NMeNle][NMeNle][AllylGly]CG-NH2; thioether N-14) | > 0.0305 | > 0.0743 | – | –
9 | C=CC[C@@H]1NC(=O)[C@H](Cc2c[nH]c3ccccc23)NC(=O)[C@@H]2CCCN2C(=O)[C@H](CC(C)C)NC(=O)[C@H](CN)NC(=O)[C@@H]2CCCN2C(=O)[C@H](CC(N)=O)NC(=O)[C@H](C)N(C)C(=O)[C@H](Cc2ccc(O)cc2)NC(=O)CSC[C@@H](C(=O)NCC(N)=O)NC(=O)[C@H](CC=C)NC(=O)[C@H](CCCC)N(C)C(=O)[C@H](CCCC)N(C)C(=O)[C@H](Cc2c[nH]c3ccccc23)NC1=O [Example 7022] ({CH2CO}-Y[NMeA]NP[Dap]LPW[AllylGly]W[NMeNle][NMeNle][AllylGly]CG-NH2; thioether N-14) | 0.00676 to 0.0303 | 0.00478 to 0.0729 | – | –

Further lines, results first:

Row | IC50 [1, 3] [µM] | IC50 [2, 4] [µM] | IC50 ([1]; value given instead of cluster, read-out: HTRF IC50 value) [µM] | IC50 ([2]; value given instead of cluster, read-out: CBA IC50 value) [µM] | SMILES
10 | 0.000385 to 0.00674 | 0.00478 to 0.0729 | – | – | CCCC[C@H]1C(=O)N(C)[C@@H](CCCC)C(=O)N[C@@H](CCCNC(=N)N)C(=O)N[C@H](C(=O)NCC(N)=O)CSCC(=O)N[C@@H](Cc2ccccc2OC)C(=O)N(C)[C@@H](C)C(=O)N[C@@H](CC(N)=O)C(=O)N2CCC[C@H]2C(=O)N[C@@H](Cc2cnc[nH]2)C(=O)N[C@@H](CC(C)C)C(=O)N2CCC[C@H]2C(=O)N[C@@H](Cc2c[nH]c3ccccc23)C(=O)N[C@@H](CO)C(=O)N[C@@H](Cc2c[nH]c3ccccc23)C(=O)N1C [Example 7017] ({CH2CO}-[Phe(2-OMe)][NMeA]NPHLPWSW[NMeNle][NMeNle]RCG-NH2; thioether N-14)
11 | – | – | 0.0136 | 0.228 | CCCC[C@H]1C(=O)N(C)[C@@H](CCCC)C(=O)N[C@@H](CCCNC(=N)N)C(=O)N[C@H](C(=O)NCC(N)=O)CSCC(=O)N[C@@H](CCCc2ccccc2)C(=O)N(C)[C@@H](C)C(=O)N[C@@H](CC(N)=O)C(=O)N2CCC[C@H]2C(=O)N[C@@H](Cc2cnc[nH]2)C(=O)N[C@@H](CC(C)C)C(=O)N2CCC[C@H]2C(=O)N[C@@H](Cc2c[nH]c3ccccc23)C(=O)N[C@@H](CO)C(=O)N[C@@H](Cc2c[nH]c3ccccc23)C(=O)N1C [Example 7018] ({CH2CO}-[hhPhe][NMeA]NPHLPWSW[NMeNle][NMeNle]RCG-NH2; thioether N-14)
12 | > 0.0305 | > 0.0743 | – | – | C=CC[C@@H]1NC(=O)[C@H](Cc2c[nH]c3ccccc23)NC(=O)[C@@H]2CCCN2C(=O)[C@H](CC(C)C)NC(=O)[C@H](Cc2c[nH]cn2)NC(=O)[C@@H]2CCCN2C(=O)[C@H](CC(N)=O)NC(=O)[C@H](C)N(C)C(=O)[C@H](Cc2ccccn2)NC(=O)CSC[C@@H](C(=O)NCC(N)=O)NC(=O)[C@H](CC=C)NC(=O)[C@H](CCCC)N(C)C(=O)[C@H](CCCC)N(C)C(=O)[C@H](Cc2c[nH]c3ccccc23)NC1=O [Example 7023] ({CH2CO}-[2Pal][NMeA]NPHLPW[AllylGly]W[NMeNle][NMeNle][AllylGly]CG-NH2; thioether N-14)
13 | 0.00676 to 0.0303 | 0.00478 to 0.0729 | – | – | CCCC[C@H]1C(=O)N(C)[C@@H](CCCC)C(=O)N[C@@H](CCCNC(=N)N)C(=O)N[C@H](C(=O)NCC(N)=O)CSCC(=O)N[C@@H](Cc2cccnc2)C(=O)N(C)[C@@H](C)C(=O)N[C@@H](CC(N)=O)C(=O)N2CCC[C@H]2C(=O)N[C@@H](Cc2c[nH]cn2)C(=O)N[C@@H](CC(C)C)C(=O)N2C[C@H](O)C[C@H]2C(=O)N[C@@H](Cc2c[nH]c3ccccc23)C(=O)N[C@@H](CO)C(=O)N[C@@H](Cc2c[nH]c3ccccc23)C(=O)N1C [Example 7024] ({CH2CO}-[3Pal][NMeA]NPHL[Hyp]WSW[NMeNle][NMeNle]RCG-NH2; thioether N-14)
14 | > 0.0305 | > 0.0743 | – | – | CCCC[C@H]1C(=O)N(C)[C@@H](CCCC)C(=O)N[C@@H](CCCNC(=N)N)C(=O)N[C@H](C(=O)NCC(N)=O)CSCC(=O)N[C@@H](Cc2ccccn2)C(=O)N(C)[C@@H](C)C(=O)N[C@@H](CC(N)=O)C(=O)N2CCC[C@H]2C(=O)N[C@@H](Cc2c[nH]cn2)C(=O)N[C@@H](CC(C)C)C(=O)N2C[C@H](O)C[C@H]2C(=O)N[C@@H](Cc2c[nH]c3ccccc23)C(=O)N[C@@H](CO)C(=O)N[C@@H](Cc2c[nH]c3ccccc23)C(=O)N1C [Example 7025] ({CH2CO}-[2Pal][NMeA]NPHL[Hyp]WSW[NMeNle][NMeNle]RCG-NH2; thioether N-14)
